Measured values as given in EPA's ToxRefDB 2.

Key:
rat [1] = conditions: Subchronic oral toxicity in rodents, sprague dawley, Water, dose end: 90 day, group: systemic
rat [2] = conditions: Combined chronic toxicity/carcinogenicity, sprague dawley, Oral, Feed, dose end: 2 year, group: systemic
rabbit [3] = conditions: Prenatal developmental toxicity study, new zealand white, Oral, Gavage/Intubation, dose end: 18 GD
rat [4] = conditions: Multigenerational reproductive toxicity study, CRL:CD BR/VAF/PLUS, Oral, Feed, dose end: 2 generation
rat [5] = conditions: Subchronic oral toxicity in rodents, sprague dawley, Feed, dose end: 13 week
mouse [6] = conditions: Carcinogenicity, cd1, Oral, Feed, dose end: 99 week, group: systemic
dog [7] = conditions: Chronic toxicity, beagle, Oral, Feed, dose end: 52 week, group: systemic
rat [8] = conditions: Subchronic oral toxicity in rodents, other, Feed, dose end: 90 day, group: systemic, systemic / in life observation / food consumption / food consumption
dog [9] = conditions: Subchronic oral toxicity in nonrodent, beagle, Capsule, dose end: 90 day, group: systemic, systemic / clinical chemistry / alkaline phosphatase (alp/alk) / alkaline phosphatase (alp/alk) + systemic / pathology microscopic / liver…
rat [10] = conditions: Subchronic oral toxicity in rodents, sprague dawley, Gavage/Intubation, dose end: 90 day, group: systemic
mouse [11] = conditions: Carcinogenicity; other; Oral; Feed; dose end: 21 month; group: systemic; systemic / pathology microscopic / liver / hypertrophy
rat [12] = conditions: Combined chronic toxicity/carcinogenicity, wistar, Oral, Feed, dose end: 2 year, group: systemic
rabbit [13] = conditions: Prenatal developmental toxicity study, other, Oral, Gavage/Intubation, dose end: 18 GD
rat [14] = conditions: Prenatal developmental toxicity study, sprague dawley, Oral, Gavage/Intubation, dose end: 15 GD
rat [15] = conditions: Multigenerational reproductive toxicity study, other, Oral, Feed, dose end: 2 generation
dog [16] = conditions: Chronic toxicity, beagle, Oral, Feed, dose end: 24 month, group: systemic
rat [17] = conditions: Prenatal developmental toxicity study; sprague dawley; Oral; Gavage/Intubation; dose end: 15 GD; group: developmental; developmental / developmental malformation / bone / absent
mouse [18] = conditions: Combined chronic toxicity/carcinogenicity, Oral, Feed, dose end: 2 year, group: systemic
rat [19] = conditions: Prenatal developmental toxicity study, sprague dawley, Oral, Gavage/Intubation, dose end: 15 GD; remark: listed apart in the source
[20] = systemic / clinical chemistry / cholesterol / cholesterol + systemic / in life observation / mortality / mortality + systemic / pathology …
[21] = systemic / pathology microscopic / adrenal gland / vacuolization + systemic / organ weight / thyroid gland / relative to body weight + …
[22] = group: developmental, developmental / developmental malformation / bone / delayed ossification + developmental / developmental malformation / bone / full …
[23] = group: maternal, systemic / in life observation / body weight / body weight gain
[24] = group: maternal, systemic / in life observation / body weight / body weight gain + reproductive / reproductive performance / aborted / aborted + reproductive…
[25] = group: offspring, developmental / offspring survival late / lactation index / lactation index + developmental / offspring survival late / [other] / [other] + …
[26] = group: parental, systemic / in life observation / body weight / body weight gain + systemic / in life observation / food consumption / food consumption
[27] = group: parental, systemic / in life observation / body weight / body weight gain + systemic / in life observation / food consumption / food consumption + …
[28] = group: maternal, reproductive / reproductive performance / estrous cycle / corpora lutea
[29] = group: systemic, systemic / in life observation / body weight / body weight + systemic / in life observation / food consumption / food consumption + systemic…
[30] = group: systemic, systemic / organ weight / liver / nos
[31] = systemic / pathology microscopic / testes / hypertrophy + systemic / pathology microscopic / testes / vacuolization + systemic / pathology …
[32] = systemic / hematology / heinz body / heinz body + systemic / organ weight / prostate / absolute
[33] = systemic / hematology / heinz body / heinz body + systemic / organ weight / prostate / absolute + systemic / clinical chemistry / alanine …
[34] = systemic / clinical chemistry / globulins / globulins + systemic / clinical chemistry / protein / protein + systemic / hematology / …
[35] = systemic / in life observation / body weight / body weight + systemic / in life observation / food consumption / food consumption
[36] = systemic / pathology microscopic / thyroid gland / adenoma + systemic / in life observation / body weight / body weight + systemic / organ …
[37] = group: developmental, developmental / developmental malformation / bone / incomplete ossification + developmental / developmental malformation / bone / misshapen
[38] = group: developmental, developmental / developmental malformation / bone / incomplete ossification + developmental / developmental malformation / bone / misshapen…
[39] = group: developmental, developmental / developmental malformation / bone / [other] + developmental / developmental malformation / bone / full supernumerary + …
[40] = group: maternal, systemic / in life observation / clinical signs / motor activity
[41] = group: maternal, systemic / in life observation / clinical signs / motor activity + systemic / in life observation / body weight / body weight gain
[42] = group: offspring, developmental / offspring survival late / lactation index / lactation index + developmental / offspring survival late / viability index / …
[43] = group: parental, systemic / organ weight / ovary / relative to body weight + systemic / organ weight / ovary / absolute
[44] = group: reproductive, reproductive / reproductive performance / fertility / fertility
[45] = systemic / clinical chemistry / alanine aminotransferase (alt/sgpt) / alanine aminotransferase (alt/sgpt) + systemic / clinical chemistry / …
[46] = systemic / clinical chemistry / urea nitrogen / urea + systemic / clinical chemistry / creatinine / creatinine + systemic / organ weight / …
[47] = group: developmental, developmental / developmental malformation / bladder / distended + developmental / developmental malformation / bone / supernumerary
[48] = group: maternal, reproductive / reproductive performance / resorptions / resorptions + systemic / in life observation / body weight / body weight gain

**Q.** Which LOAEL (rat [1]; [20]) does the source give for CC(Cl)C(Cl)Cl (stereo not drawn) [1,1,2-Trichloropropane] here?
**A.** > 50 mg/kg/day

**Q.** What about the NEL (rat [1]; [20]) of the same compound?
**A.** 0.5 mg/kg/day

**Q.** And the NOAEL (rat [1]; [20])?
**A.** ≥ 50 mg/kg/day

**Q.** What about the LEL (rat [1]; systemic / in life observation / mortality / mortality) of the same compound?
**A.** 5 mg/kg/day

**Q.** What does the source list for CC(C)NC(=O)N1CC(=O)N(c2cc(Cl)cc(Cl)c2)C1=O [Iprodione]?
**A.** LEL (rat [2]; [21]): 6.1 mg/kg/day; NEL (rat [2]; [21]): < 6.1 mg/kg/day; LOAEL (rat [2]; systemic / pathology microscopic / liver / hypertrophy + systemic / organ weight / liver / absolute + systemic / organ weight / liver / …): 12.4 mg/kg/day; NOAEL (rat [2]; systemic / pathology microscopic / liver / hypertrophy + systemic / pathology microscopic / adrenal gland / rarefaction + systemic / …): 6.1 mg/kg/day; LEL (rabbit [3]; [22]): 200 mg/kg/day; LOAEL (rabbit [3]; [22]): 200 mg/kg/day; NEL (rabbit [3]; [22]): 60 mg/kg/day; NOAEL (rabbit [3]; [22]): 60 mg/kg/day; LEL (rabbit [3]; [23]): 60 mg/kg/day; LOAEL (rabbit [3]; [23]): 60 mg/kg/day; NEL (rabbit [3]; [24]): 20 mg/kg/day; NOAEL (rabbit [3]; [24]): 20 mg/kg/day; LEL (rat [4]; [25]): 158 mg/kg/day; LOAEL (rat [4]; [25]): 158 mg/kg/day; NEL (rat [4]; [25]): 54.7 mg/kg/day; NOAEL (rat [4]; [25]): 54.7 mg/kg/day; LEL (rat [4]; [26]): 54.7 mg/kg/day; LOAEL (rat [4]; [26]): 54.7 mg/kg/day; NEL (rat [4]; [27]): 16.5 mg/kg/day; NOAEL (rat [4]; [27]): 16.5 mg/kg/day; LEL (rat [5]; [28]): 184 mg/kg/day; LOAEL (rat [5]; [28]): 184 mg/kg/day; NEL (rat [5]; [28]): 89 mg/kg/day; NOAEL (rat [5]; [28]): 89 mg/kg/day; LOAEL (rat [5]; [29]): 151 mg/kg/day; NOAEL (rat [5]; [29]): 78 mg/kg/day; LEL (rat [5]; [30]): 89 mg/kg/day; NEL (rat [5]; [30]): < 89 mg/kg/day; LOAEL (mouse [6]; systemic / pathology microscopic / testes / hypertrophy + systemic / pathology microscopic / testes / vacuolization): 115 mg/kg/day; LEL (mouse [6]; [31]): 115 mg/kg/day; NEL (mouse [6]; [31]): 23 mg/kg/day; NOAEL (mouse [6]; [31]): 23 mg/kg/day; LEL (dog [7]; [32]): 24.9 mg/kg/day; LOAEL (dog [7]; [32]): 24.9 mg/kg/day; NEL (dog [7]; [33]): 4.12 mg/kg/day; NOAEL (dog [7]; [33]): 4.12 mg/kg/day; LEL (rat [8]): 25 mg/kg/day; LOAEL (rat [8]): > 50 mg/kg/day; NEL (rat [8]): 7.5 mg/kg/day; NOAEL (rat [8]): ≥ 50 mg/kg/day; LEL (dog [9]): 180 mg/kg/day; LOAEL (dog [9]): 180 mg/kg/day; NEL (dog [9]): 60 mg/kg/day; NOAEL (dog [9]): 60 mg/kg/day

**Q.** For O=C(O)C(F)(F)C(F)(F)C(F)(F)C(F)(F)C(F)(F)F [PFHxA], which LOAEL (rat [10]; [34]) is on record?
**A.** > 200 mg/kg/day

**Q.** What about the NOAEL (rat [10]; [34]) of the same compound?
**A.** ≥ 200 mg/kg/day

**Q.** What about the LEL (rat [10]; [35]) of the same compound?
**A.** 10 mg/kg/day

**Q.** And the NEL (rat [10]; [35])?
**A.** < 10 mg/kg/day

**Q.** What does the source list for CC(C)(C)C(=O)C(Oc1ccc(Cl)cc1)n1cncn1 (stereo not drawn) [Triadimefon]?
**A.** LEL (mouse [11]): 19.6 mg/kg/day; LOAEL (mouse [11]): 19.6 mg/kg/day; NEL (mouse [11]): < 19.6 mg/kg/day; NOAEL (mouse [11]): < 19.6 mg/kg/day; LEL (rat [12]; systemic / hematology / leukocyte (wbc) count differential / leukocyte (wbc) + systemic / organ weight / liver / nos): 22.5 mg/kg/day; NEL (rat [12]; systemic / hematology / leukocyte (wbc) count differential / leukocyte (wbc) + systemic / organ weight / liver / nos + systemic / clinical …): 3.6 mg/kg/day; LOAEL (rat [12]; [36]): 114 mg/kg/day; NOAEL (rat [12]; [36]): 16.4 mg/kg/day; LEL (rabbit [13]; [37]): 50 mg/kg/day; LOAEL (rabbit [13]; [37]): 50 mg/kg/day; NEL (rabbit [13]; [38]): 20 mg/kg/day; NOAEL (rabbit [13]; [38]): 20 mg/kg/day; LEL (rabbit [13]; [23]): 120 mg/kg/day; LOAEL (rabbit [13]; [23]): 120 mg/kg/day; NEL (rabbit [13]; [23]): 50 mg/kg/day; NOAEL (rabbit [13]; [23]): 50 mg/kg/day; LOAEL (rat [14]; group: developmental, developmental / developmental malformation / bone / [other]): 100 mg/kg/day; NEL (rat [14]; [39]): 25 mg/kg/day; NOAEL (rat [14]; [39]): 50 mg/kg/day; LEL (rat [14]; group: developmental, developmental / developmental malformation / bone / full supernumerary): 50 mg/kg/day; LEL (rat [14]; [40]): 25 mg/kg/day; LOAEL (rat [14]; [40]): 25 mg/kg/day; NEL (rat [14]; [41]): 10 mg/kg/day; NOAEL (rat [14]; [41]): 10 mg/kg/day; LEL (rat [15]; [42]): 90 mg/kg/day; LOAEL (rat [15]; [42]): 90 mg/kg/day; NEL (rat [15]; [42]): 2.5 mg/kg/day; NOAEL (rat [15]; [42]): 2.5 mg/kg/day; NOAEL (rat [15]; group: parental, systemic / organ weight / ovary / relative to body weight + systemic / in life observation / body weight / body weight + systemic / organ …): 2.5 mg/kg/day; LOAEL (rat [15]; group: parental, systemic / organ weight / ovary / relative to body weight + systemic / organ weight / epididymis / relative to body weight): 90 mg/kg/day; LEL (rat [15]; [43]): 2.5 mg/kg/day; NEL (rat [15]; [43]): < 2.5 mg/kg/day; LEL (rat [15]; [44]): 90 mg/kg/day; LOAEL (rat [15]; [44]): 90 mg/kg/day; NEL (rat [15]; [44]): 2.5 mg/kg/day; NOAEL (rat [15]; [44]): 2.5 mg/kg/day; LOAEL (dog [16]; [45]): 47 mg/kg/day; NOAEL (dog [16]; [45]): 11.4 mg/kg/day; NEL (dog [16]; systemic / clinical chemistry / alkaline phosphatase (alp/alk) / alkaline phosphatase (alp/alk) + systemic / clinical chemistry / …): 3.03 mg/kg/day; LEL (dog [16]; systemic / pathology microscopic / testes / infiltration cellular / epididymides): 11.4 mg/kg/day; LEL (rat [17]): 10 mg/kg/day; LOAEL (rat [17]): 10 mg/kg/day; NEL (rat [17]): 5 mg/kg/day; NOAEL (rat [17]): 5 mg/kg/day; NOAEL (mouse [18]; [45]): 40 mg/kg/day; LOAEL (mouse [18]; systemic / clinical chemistry / alanine aminotransferase (alt/sgpt) / alanine aminotransferase (alt/sgpt) + systemic / in life observation…): 240 mg/kg/day; LEL (mouse [18]; [46]): 6.67 mg/kg/day; NEL (mouse [18]; [46]): < 6.67 mg/kg/day; LEL (rat [19]; [47]): 90 mg/kg/day; LOAEL (rat [19]; [47]): 90 mg/kg/day; NEL (rat [19]; [47]): 30 mg/kg/day; NOAEL (rat [19]; [47]): 30 mg/kg/day; LEL (rat [19]; [48]): 90 mg/kg/day; LOAEL (rat [19]; [48]): 90 mg/kg/day; NEL (rat [19]; [48]): 30 mg/kg/day; NOAEL (rat [19]; [48]): 30 mg/kg/day
